Data: patent US20240287138A1, “CYCLIC PEPTIDES FOR INHIBITING TNF RECEPTOR 1 ACTIVITY” (Merck Sharp & Dohme LLC, priority 2023, published 2024)
Numbered stars: 1 amine (or outer) side, 2 acyl side, 3 side chain; on linkers, the order of the positions; unused ones are H or OH. Bridge positions count the residues as written; N and C are the ends. Square brackets hold non-standard residues; d marks the D form. Peptide text beside a SMILES is read from it. Trp(βS-Me,7-OMe) = COc1cccc2c([C@H](C)[C@H](N)C(=O)O)c[nH]c12; X49 = C[N+](C)(C)CC(=O)N[C@H]1C[C@H](C(=O)[*:2])N([*:1])C1; Trp(1-CH2COOH) = N[C@@H](Cc1cn(CC(=O)O)c2ccccc12)C(=O)O; X50 = C[C@@H](c1ccc(C(=O)O)cc1)[C@H](N[*:1])C(=O)[*:2]; Phe(4-SO2NH2) = N[C@@H](Cc1ccc(S(N)(=O)=O)cc1)C(=O)O; Phe(2-F,4-COOH) = N[C@@H](Cc1ccc(C(=O)O)cc1F)C(=O)O; Phe(4-CH2COOH) = N[C@@H](Cc1ccc(CC(=O)O)cc1)C(=O)O; Trp(7-CN) = N#Cc1cccc2c(C[C@H](N)C(=O)O)c[nH]c12; Trp(7-Cl) = N[C@@H](Cc1c[nH]c2c(Cl)cccc12)C(=O)O; X43 = O=C(O)[C@H]1CC[C@@H](C(=O)[*:2])N([*:1])C1; Phe(3-CONH2) = NC(=O)c1cccc(C[C@H](N)C(=O)O)c1; Phe(4-CONH2) = NC(=O)c1ccc(C[C@H](N)C(=O)O)cc1; Phe(4-COOH) = N[C@@H](Cc1ccc(C(=O)O)cc1)C(=O)O; Trp(7-aza) = N[C@@H](Cc1c[nH]c2ncccc12)C(=O)O; Ala(thiazol-5-yl) = N[C@@H](Cc1cncs1)C(=O)O; Pip(5R-OH) = O=C(O)[C@@H]1CC[C@@H](O)CN1; X1 = O=C([C@@H]1CC[C@H](N[*:1])C1)[*:2]; Pro(4R-NH2) = N[C@H]1CN[C@H](C(=O)O)C1; Pip(4-aza) = O=C(O)[C@@H]1CNCCN1; 4Pal = N[C@@H](Cc1ccncc1)C(=O)O; NMeE = CN[C@@H](CCC(=O)O)C(=O)O; dHyp = O=C(O)[C@H]1C[C@H](O)CN1; dNMeE = CN[C@H](CCC(=O)O)C(=O)O; Cit = NC(=O)NCCC[C@H](N)C(=O)O; hLeu = CC(C)CC[C@H](N)C(=O)O; NMeS = CN[C@@H](CO)C(=O)O; αMeS = C[C@](N)(CO)C(=O)O; Nle = CCCC[C@H](N)C(=O)O; Sar = CNCC(=O)O

Target: T1, TNFα-induced NF-κB signal transduction pathway (TNFR1 signaling) in THP-1 cells (Homo sapiens, UniProt P19438)
T1 sequence (P19438 30-455): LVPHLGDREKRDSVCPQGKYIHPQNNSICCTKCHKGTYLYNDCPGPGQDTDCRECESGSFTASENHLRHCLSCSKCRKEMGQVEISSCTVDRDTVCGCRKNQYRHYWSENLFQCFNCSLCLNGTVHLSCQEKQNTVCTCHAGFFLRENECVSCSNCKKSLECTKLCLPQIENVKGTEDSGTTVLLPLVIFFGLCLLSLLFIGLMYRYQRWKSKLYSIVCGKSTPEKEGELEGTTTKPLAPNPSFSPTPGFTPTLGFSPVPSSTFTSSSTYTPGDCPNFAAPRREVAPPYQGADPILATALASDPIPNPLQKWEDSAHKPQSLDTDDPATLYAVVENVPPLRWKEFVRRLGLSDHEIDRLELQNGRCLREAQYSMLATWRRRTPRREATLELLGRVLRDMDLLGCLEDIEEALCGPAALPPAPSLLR
Assay: THP-1 Lucia NF-κB reporter cell assay, inhibition of TNFα-induced NF-κB signaling
Format: cell-based
Conditions: THP-1 NF-κB Lucia reporter cells, 10 ng/mL TNFα, 16-18 h, secreted luciferase; read-out: THP-1 IC50
Method: C. Procedure for THP-1 Lucia NF-κB cells
The inhibition of TNFα-induced NF-κB signal transduction pathways was evaluated in THP-1 cells. THP-1 cells harboring NF-κB-inducible Lucia™ reporter gene (InvivoGen, cat. #thp1-nfkb) designed for monitoring NF-κB signal transduction pathway was employed to assess the inhibitory effect macrocyclic peptides on TNFR1 signaling. The cells were cultured in media containing RPMI 1640, 2 mM L-glutamine, 25 mM HEPES, 10% heat-inactivated fetal bovine serum with appropriate selection antibiotics. Assays were performed in media that was devoid of selection antibiotics. For profiling, 125 nL of peptides in DMSO (10 mM) were dispensed into Falcon® 384-well Optilux white/clear flat bottom TC-treated microtest microplate (Corning, cat. #353963) using Echo® 555. […] A suspension of 1 million cells/mL was dispensed at 20 μL/well in a 384-well plate to a density of 20,000 cells/well and pre-incubated with peptides at 37° C. for 1 h. Subsequently, 5 μL of TNF containing media (recombinant human TNFα; R&D Systems USA, cat. #210-TA-005/CF) or TNF-free media (for controls) was added to the wells. The final concentration of TNFα in the assay in 10 ng/mL. After o.n. incubation at 37° C. (16-18 h), 5 μL of supernatant was aspirated and transferred to a 384-well microplate (PerkinElmer, cat. #6007680) for measurement of secreted luciferase activity with 25 μL of QUANTI-Luc™ luminescence assay reagent (InvivoGen, cat. #rep-qlc1) in each well. The luminescence was measured in EnVision® Multimode Plate Reader (PerkinElmer). Dose response curves were analyzed using a 4-parameter logistic model to calculate IC50 values, reported in Table 2, using TIBCO® Spotfire® software employing appropriate Minimum and Maximum controls.

Row | Compound | IC50 [nM]
1 | CCCC[C@@H]1NC(=O)[C@@H]2CC[C@@H](C2)NC(=O)[C@H]([C@@H](C)c2c[nH]c3c(OC)cccc23)NC(=O)CN(C)C(=O)[C@H](Cc2ccc(O)cc2)NC(=O)[C@H](Cc2ccc(C(=O)O)cc2)NC(=O)[C@](C)(CO)NC(=O)[C@H](Cc2c[nH]c3c(Cl)cccc23)NC(=O)[C@H](Cc2ccc(C(=O)O)cc2F)NC(=O)[C@H](CC(N)=O)NC(=O)[C@H](CCC(=O)O)N(C)C(=O)[C@H](Cc2c[nH]c3ccccc23)NC(=O)[C@@H]2CNCCN2C(=O)[C@H](Cc2ccncc2)NC1=O [SEQ ID NO. 108] (cyclo([4Pal][Pip(4-aza)]W[NMeE]N[Phe(2-F,4-COOH)][Trp(7-Cl)][αMeS][Phe(4-COOH)]Y[Sar][Trp(βS-Me,7-OMe)][X1][Nle])) | 1.2
2 | CCCC[C@@H]1NC(=O)[C@@H]2CC[C@@H](C2)NC(=O)[C@H]([C@@H](C)c2c[nH]c3c(OC)cccc23)NC(=O)CN(C)C(=O)[C@H](Cc2ccc(O)cc2)NC(=O)[C@H](Cc2ccc(CC(=O)O)cc2)NC(=O)[C@](C)(CO)NC(=O)[C@H](Cc2c[nH]c3c(Cl)cccc23)NC(=O)[C@H](Cc2ccncc2)NC(=O)[C@H](CC(N)=O)NC(=O)[C@H](CCC(=O)O)N(C)C(=O)[C@H](Cc2c[nH]c3ccccc23)NC(=O)[C@@H]2CNCCN2C(=O)[C@H](Cc2ccncc2)NC1=O [SEQ ID NO. 111] (cyclo([4Pal][Trp(7-Cl)][αMeS][Phe(4-CH2COOH)]Y[Sar][Trp(βS-Me,7-OMe)][X1][Nle][4Pal][Pip(4-aza)]W[NMeE]N)) | 1.6
3 | CCCC[C@@H]1NC(=O)[C@@H]2CC[C@@H](C2)NC(=O)[C@H]([C@@H](C)c2c[nH]c3c(OC)cccc23)NC(=O)CN(C)C(=O)[C@H](Cc2ccc(C(N)=O)cc2)NC(=O)[C@H](Cc2ccc(C(N)=O)cc2)NC(=O)[C@](C)(CO)NC(=O)[C@H](Cc2c[nH]c3c(C#N)cccc23)NC(=O)[C@H](Cc2ccc(C(=O)O)cc2)NC(=O)[C@H](CC(N)=O)NC(=O)[C@H]2C[C@H](O)CN2C(=O)[C@H](Cc2c[nH]c3ncccc23)NC(=O)[C@H](CCCNC(N)=O)NC(=O)[C@H]([C@@H](C)c2ccc(C(=O)O)cc2)NC1=O [SEQ ID NO. 118] (cyclo([Cit][Trp(7-aza)][dHyp]N[Phe(4-COOH)][Trp(7-CN)][αMeS][Phe(4-CONH2)][Phe(4-CONH2)][Sar][Trp(βS-Me,7-OMe)][X1][Nle][X50])) | 2.8
4 | CCCC[C@@H]1NC(=O)[C@@H]2CC[C@@H](C2)NC(=O)[C@H]([C@@H](C)c2c[nH]c3c(OC)cccc23)NC(=O)CN(C)C(=O)[C@H](Cc2ccc(O)cc2)NC(=O)[C@H](Cc2ccc(C(=O)O)cc2)NC(=O)[C@](C)(CO)NC(=O)[C@H](Cc2c[nH]c3c(Cl)cccc23)NC(=O)[C@H](Cc2ccncc2)NC(=O)[C@H](CC(N)=O)NC(=O)[C@H](CCC(=O)O)N(C)C(=O)[C@H](Cc2c[nH]c3ccccc23)NC(=O)[C@@H]2CC[C@H](C(=O)O)CN2C(=O)[C@H](Cc2ccncc2)NC1=O [SEQ ID NO. 120] (cyclo([4Pal][Trp(7-Cl)][αMeS][Phe(4-COOH)]Y[Sar][Trp(βS-Me,7-OMe)][X1][Nle][4Pal][X43]W[NMeE]N)) | 1.4
5 | CCCC[C@@H]1NC(=O)CSC[C@@H](C(N)=O)NC(=O)[C@H]([C@@H](C)c2c[nH]c3c(OC)cccc23)NC(=O)CN(C)C(=O)[C@H](Cc2ccc(O)cc2)NC(=O)[C@H](Cc2ccc(C(=O)O)cc2)NC(=O)[C@](C)(CO)NC(=O)[C@H](Cc2c[nH]c3c(Cl)cccc23)NC(=O)[C@H](Cc2ccncc2)NC(=O)[C@H](CC(N)=O)NC(=O)[C@H](CCC(=O)O)N(C)C(=O)[C@H](Cc2c[nH]c3ncccc23)NC(=O)[C@@H]2C[C@@H](N)CN2C(=O)[C@H](Cc2ccncc2)NC1=O [SEQ ID NO. 125] ({CH2CO}-[Nle][4Pal][Pro(4R-NH2)][Trp(7-aza)][NMeE]N[4Pal][Trp(7-Cl)][αMeS][Phe(4-COOH)]Y[Sar][Trp(βS-Me,7-OMe)]C-NH2; thioether N-14) | 4.1
6 | CCCC[C@@H]1NC(=O)[C@@H]2CC[C@@H](C2)NC(=O)[C@H]([C@@H](C)c2c[nH]c3c(OC)cccc23)NC(=O)CN(C)C(=O)[C@H](Cc2ccc(C(=O)O)cc2)NC(=O)[C@H](Cc2ccc(C(N)=O)cc2)NC(=O)[C@](C)(CO)NC(=O)[C@H](Cc2c[nH]c3c(C#N)cccc23)NC(=O)[C@H](Cc2ccc(S(N)(=O)=O)cc2)NC(=O)[C@H](CC(N)=O)NC(=O)[C@@H](CCC(=O)O)N(C)C(=O)[C@H](Cc2c[nH]c3ncccc23)NC(=O)[C@@H]2CC[C@@H](O)CN2C(=O)[C@H](Cc2ccncc2)NC1=O [SEQ ID NO. 133] (cyclo([4Pal][Pip(5R-OH)][Trp(7-aza)][dNMeE]N[Phe(4-SO2NH2)][Trp(7-CN)][αMeS][Phe(4-CONH2)][Phe(4-COOH)][Sar][Trp(βS-Me,7-OMe)][X1][Nle])) | 1.4
7 | COc1cccc2c([C@H](C)[C@@H]3NC(=O)CN(C)C(=O)[C@H](Cc4ccc(O)cc4)NC(=O)[C@H](Cc4ccc(C(=O)O)cc4)NC(=O)[C@](C)(CO)NC(=O)[C@H](Cc4c[nH]c5c(Cl)cccc45)NC(=O)[C@H](Cc4ccncc4)NC(=O)[C@H](CC(N)=O)NC(=O)[C@H](CCC(=O)O)N(C)C(=O)[C@H](Cc4c[nH]c5ccccc45)NC(=O)[C@@H]4CNCCN4C(=O)[C@H](Cc4ccncc4)NC(=O)[C@H](CCC(C)C)NC(=O)[C@@H]4CC[C@@H](C4)NC3=O)c[nH]c12 [SEQ ID NO. 137] (cyclo([4Pal][Trp(7-Cl)][αMeS][Phe(4-COOH)]Y[Sar][Trp(βS-Me,7-OMe)][X1][hLeu][4Pal][Pip(4-aza)]W[NMeE]N)) | 1.3
8 | CCCC[C@@H]1NC(=O)[C@@H]2CC[C@@H](C2)NC(=O)[C@H]([C@@H](C)c2c[nH]c3c(OC)cccc23)NC(=O)CN(C)C(=O)[C@H](Cc2ccc(O)cc2)NC(=O)[C@H](Cc2ccc(C(=O)O)cc2)NC(=O)[C@](C)(CO)NC(=O)[C@H](Cc2c[nH]c3c(Cl)cccc23)NC(=O)[C@H](Cc2cncs2)NC(=O)[C@H](CC(N)=O)NC(=O)[C@H](CCC(=O)O)N(C)C(=O)[C@H](Cc2c[nH]c3ccccc23)NC(=O)[C@@H]2CNCCN2C(=O)[C@H](Cc2ccncc2)NC1=O [SEQ ID NO. 138] (cyclo([4Pal][Pip(4-aza)]W[NMeE]N[Ala(thiazol-5-yl)][Trp(7-Cl)][αMeS][Phe(4-COOH)]Y[Sar][Trp(βS-Me,7-OMe)][X1][Nle])) | 2
9 | CCCC[C@@H]1NC(=O)[C@@H]2CC[C@@H](C2)NC(=O)[C@H]([C@@H](C)c2c[nH]c3c(OC)cccc23)NC(=O)CN(C)C(=O)[C@H](Cc2ccc(C(=O)O)cc2)NC(=O)[C@H](Cc2ccc(C(N)=O)cc2)NC(=O)[C@](C)(CO)NC(=O)[C@H](Cc2c[nH]c3c(C#N)cccc23)NC(=O)[C@H](Cc2ccc(C(=O)O)cc2)NC(=O)[C@H](CC(N)=O)NC(=O)[C@H]2C[C@H](NC(=O)C[N+](C)(C)C)CN2C(=O)[C@H](Cc2cn(CC(=O)O)c3ccccc23)NC(=O)[C@@H]2CNCCN2C(=O)[C@H](Cc2ccncc2)NC1=O [SEQ ID NO. 139] (cyclo([4Pal][Pip(4-aza)][Trp(1-CH2COOH)][X49]N[Phe(4-COOH)][Trp(7-CN)][αMeS][Phe(4-CONH2)][Phe(4-COOH)][Sar][Trp(βS-Me,7-OMe)][X1][Nle])) | 1
10 | CCCC[C@@H]1NC(=O)CSC[C@@H](C(N)=O)NC(=O)[C@H]([C@@H](C)c2c[nH]c3c(OC)cccc23)NC(=O)CN(C)C(=O)[C@H](Cc2cccc(C(N)=O)c2)NC(=O)[C@H](Cc2ccc(C(=O)O)cc2)NC(=O)[C@](C)(CO)NC(=O)[C@H](Cc2c[nH]c3c(Cl)cccc23)NC(=O)[C@H](Cc2ccncc2)NC(=O)[C@H](CC(N)=O)NC(=O)[C@H](CCC(=O)O)N(C)C(=O)[C@H](Cc2c[nH]c3ccccc23)NC(=O)[C@H](CO)N(C)C(=O)[C@H](Cc2ccncc2)NC1=O [SEQ ID NO. 270] ({CH2CO}-[Nle][4Pal][NMeS]W[NMeE]N[4Pal][Trp(7-Cl)][αMeS][Phe(4-COOH)][Phe(3-CONH2)][Sar][Trp(βS-Me,7-OMe)]C-NH2; thioether N-14) | 2.2
